Measured values from patent US8637512B2, “Formulations and method of treatment” (Glaxo Group Limited, priority 2002, dated 2014).

Key:
[1] = cited from earlier work
[2] = Regional absorption study in the gastrointestinal tract; format: in vivo
Description: Until recently, it was not known where, in the gastrointestinal tract, lamotrigine is absorbed. In carrying out a regional absorption study it has recently been discovered that the extent of absorption of lamotrigine is consistent when the drug is delivered to any point in the gastrointestinal tract between the stomach and the ascending colon. The extent of absorption is also equivalent whether the drug is delivered as a solid or as a solution.

[3] = stomach versus lower regions of the gastrointestinal tract; cited from earlier work

Nc1nnc(-c2cccc(Cl)c2Cl)c(N)n1 [Lamotrigine, 3,5-diamino-6-(2,3-dichlorophenyl)-1,2,4-triazine]
absorption after oral administration [1]: rapidly and completely absorbed | absolute bioavailability ([1]; oral administration): about 98% | effect of food on absolute bioavailability ([1]; oral administration): not affected by food | first pass metabolism ([1]; oral administration): negligible | extent of absorption, solid versus solution ([2]; drug delivered as a solid or as a solution): equivalent | extent of absorption by site of delivery ([2]; drug delivered to any point in the gastrointestinal tract between the stomach and the ascending colon): consistent | solubility in the stomach compared to lower regions of the gastrointestinal tract [3]: higher
